Measured values: paper PMC11998009, “Identification of a New FtsZ Inhibitor by Virtual Screening, Mechanistic Insights, and Structure–Activity Relationship Analyses” (ACS Infectious Diseases, 2025)
Converted amounts (≈) assume the structure as drawn. Read-outs that look alike come from different tables or passages of the source.

Experiments:
[1] = test system: S. aureus ATCC25923; test: Time-killing curve; assay type: cell-based
Protocol: page 19: […] MIC method. […] The cultures were incubated at 37°C, and aliquots were […] Serial dilutions were spread on LB solid medium and the plates were incubated at 37°C O/N. Then, the number of colonies was determined. Killing curves were constructed by plotting the log10 CFU/ml vs. time. Bactericidal activity was defined as a reduction of 99.9% (≥3 log 10) of the total number of CFU/ml in the original inoculum (NCCLS, 1999). Bacteriostatic activity was defined as maintenance of the original inoculum concentration or a reduction of less than 99.9% (<3 log10) of the total number of CFU/ml in the original inoculum. Live cell imaging experiments […] Cells were diluted to OD of 0.02 in fresh TSB containing in the case of strain TD276 anhydrotetracycline 0.4 μM to induce the expression of mCherryFtsZ. After 1 hour of incubation at 37°C 2 μl of the culture was spotted onto an agar pad prepared with TSB and […] For time-lapse microscopy experiments, an inverted widefield microscope (Leica DMi8S) equipped with a 100× oil immersion objective (HC PL FLUOTAR 100x/1.32 OIL) was used. […] Images were recorded at 15-min intervals and up to 5 h. Bacteria were visualized in phase- contrast and fluorescence with the required parameters. […] S. aureus […] in fluorescence (with the required parameters for Hoechst and mCherry) using a 160x objective (HC PL APO S19

[2] = test system: S. aureus ATCC25923; test: Galleria mellonella infection model
[3] = test system: G. mellonella; test: Toxicity in uninfected G. mellonella larvae; assay type: in vivo, Galleria mellonella; conditions: 40 mg/kg
[4] = biological target: T1, S. aureus FtsZ protein (FtsZSa) (Staphylococcus aureus, UniProt P0A031); test: In vitro FtsZ GTPase activity (PK/LDH coupled assay); assay type: biochemical; parameters: Residual GTPase activity: concentration or dose not given beside the values
T1 construct: made in house; host or cells: Escherichia coli BL21DE3
T1 sequence (P0A031 1-390): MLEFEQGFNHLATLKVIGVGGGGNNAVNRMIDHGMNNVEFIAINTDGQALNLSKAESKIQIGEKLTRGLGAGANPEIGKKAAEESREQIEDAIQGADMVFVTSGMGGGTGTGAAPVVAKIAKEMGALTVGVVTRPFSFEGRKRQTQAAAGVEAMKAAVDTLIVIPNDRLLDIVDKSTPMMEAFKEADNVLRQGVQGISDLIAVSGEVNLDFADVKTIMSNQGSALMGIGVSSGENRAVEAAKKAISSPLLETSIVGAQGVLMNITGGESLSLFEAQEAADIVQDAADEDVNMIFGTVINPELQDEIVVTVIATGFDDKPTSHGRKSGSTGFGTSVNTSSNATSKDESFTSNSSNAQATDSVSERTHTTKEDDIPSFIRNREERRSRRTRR
Protocol: In vitro FtsZ GTPase activity
FtsZSa and FtsZPa were expressed and purified as previously described.13,14 GTPase activity was assayed at 30°C using a pyruvate kinase–L-lactic dehydrogenase (PK/LDH) spectrophotometric coupled assay, as previously described15 with minor modification. The reaction mixture was first set up to contain 50 mM MES […]
phosphoenolpyruvate, and 4.8 μM of FtsZ. The assay was initiated by the addition of 1 mM GTP. The experiments were performed in triplicate. The inhibitory concentration that reduced the enzymatic activity by half (IC50) was determined using Prism 10. […]

[5] = test system: P. aeruginosa PAO1; test: MIC / checkerboard with PaβN; assay type: cell-based
[6] = biological target: T2, FtsZSa (Staphylococcus aureus, UniProt P0A031); test: FtsZSa polymerization, sedimentation assay; conditions: sedimentation assay, 100 μM
T2 sequence (P0A031 1-390): T1 sequence (P0A031 1-390)

[7] = biological target: T3, FtsZPa (Pseudomonas aeruginosa, UniProt P47204); test: FtsZPa GTPase activity; assay type: biochemical; parameters: made in house; host or cells: Escherichia coli BL21DE3
T3 sequence (P47204 1-394): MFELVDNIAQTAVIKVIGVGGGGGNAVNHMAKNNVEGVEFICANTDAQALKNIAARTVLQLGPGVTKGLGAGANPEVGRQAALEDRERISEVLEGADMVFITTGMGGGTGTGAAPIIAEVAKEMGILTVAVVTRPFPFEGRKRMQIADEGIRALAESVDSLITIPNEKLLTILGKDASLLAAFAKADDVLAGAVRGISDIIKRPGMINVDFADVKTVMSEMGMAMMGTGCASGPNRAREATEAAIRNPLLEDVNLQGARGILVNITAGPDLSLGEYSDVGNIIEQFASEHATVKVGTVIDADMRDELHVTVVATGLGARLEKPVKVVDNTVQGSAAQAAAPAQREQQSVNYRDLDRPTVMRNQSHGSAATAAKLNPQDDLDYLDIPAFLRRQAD

[8] = test system: S. aureus TD276 expressing FtsZ-mCherry; test: FtsZ localization by fluorescence time-lapse microscopy; assay type: cell-based; conditions: 4 μg/mL C11, time-lapse; untreated 4%
[9] = test system: S. aureus ATCC25923; test: MIC determination by 2-fold microdilution, resazurin method; assay type: cell-based, Staphylococcus aureus; conditions: S. aureus ATCC25923, single drug
[10] = MTT cell viability assay on A549; conditions: human, A549 cells
[11] = test system: A549 pulmonary epithelial cells; test: MTT cell viability assay on A549; conditions: A549, 25 μM, 24 h
[12] = test system: K. pneumoniae ATCC13883; test: MIC / checkerboard with PaβN; assay type: cell-based
[13] = biological target: T3, FtsZPa; test: FtsZPa polymerization assay
[14] = test system: S. aureus ATCC25923 biofilms; test: Biofilm eradication assay (CFU counting, CLSM); assay type: cell-based

SMILES: COc1ccc(Cc2nnc(SC3=CS(=O)(=O)c4ccccc43)o2)cc1 [C11]
- Time-kill effect ([1]; 1- or 2-fold the MIC, 24 h): Bacteriostatic effect
- Time-kill effect ([1]; half of the MIC): slight regrowth
- Survival rate of infected larvae ([2]; 40 mg/kg 2 h after infection, 2 days postinfection, DMSO group 46%): 77%
- Survival rate of infected larvae ([2]; 40 mg/kg, after 6 days): significantly higher than the mock-treated group
- Survival rate of infected larvae ([2]; 40 mg/kg, three days postinfection, DMSO group 32%): 58%
- Toxicity for G. mellonella (survival of not infected, treated larvae) [3]: not toxic
- Effect on FtsZSa GTPase activity [4]: did not affect the FtsZSa GTPase activity
- Residual GTPase activity ([4]; S. aureus FtsZ protein): 82.2%
- MIC ([5]; P. aeruginosa PAO1, C11 alone): ≥ 128 mg/L
- MIC ([5]; Pseudomonas aeruginosa, PAO1, P. aeruginosa PAO1, + PaβN 64 µg/ml, read-out: MIC): 16 mg/L
- MIC ([5]; Pseudomonas aeruginosa, PAO1, P. aeruginosa PAO1, + PaβN […], read-out: MIC): 1 mg/L
- MIC ([5]; Pseudomonas aeruginosa, PAO1, P. aeruginosa PAO1, C11 alone, read-out: MIC): ≥ 128 mg/L
- Effect on FtsZSa polymers formation [6]: inhibitory effect on FtsZSa polymerization
- Effect on FtsZPa GTPase activity [7]: did not interfere with the GTPase activity
- Percentage of cells in which FtsZ was delocalized [8]: 60%
- MIC S. aureus [9]: 2 mg/L (≈ 5.18 µM)
- MIC ([9]; Staphylococcus aureus): 2 mg/L (≈ 5.18 µM)
- viability at 6 h, 25 µM [10]: > 90%
- Percentage of live cells (MTT) [11]: higher than 70%
- MIC ([12]; K. pneumoniae ATCC13883, C11 alone): ≥ 128 mg/L
- MIC ([12]; Klebsiella pneumoniae, ATCC13883, K. pneumoniae ATCC13883, + PaβN […], read-out: MIC): 8 mg/L
- MIC ([12]; Klebsiella pneumoniae, ATCC13883, K. pneumoniae ATCC13883, C11 alone, read-out: MIC): ≥ 128 mg/L
- IC50 [13]: 34 µM
- Biofilm eradication, viable cells by CFU counting ([14]; 2 × MIC, 4 μg/mL, 24 h treatment): reduce the number of viable cells
- Biofilm eradication by CLSM ([14]; increasing concentrations (4, 8, 16 μg/ml)): eradicating the majority of the attached cells
